# Tests used:
# [1] = test system: Cryptococcus yeast (CHY3833 and CHY3836); assay: Yeast replication secondary screen (OD600); format: cell-based, Cryptococcus neoformans serotype D (deneoformans); conditions: 10 μM, 12 h at 30°C
# Procedure: (ii) Yeast replication. CHY3833 and CHY3836 were each grown in YPD liquid overnight at 30°C to saturation and then resuspended in 0.5× YPD at an OD600 of 0.005. Strains were aliquoted into 384-well plates with inhibitors and grown for 12 h at 30°C at […] before OD600 readings were taken. Compounds that caused a >10% decrease in growth were considered yeast growth inhibitors.
# [2] = test system: normal human dermal fibroblasts (NHDF) cells; assay: Fibroblast cytotoxicity (CellTiter-Glo); format: cell-based; conditions: 10 µM
# Procedure: PrimaPure normal human dermal fibroblasts (NHDF) cells (Genlatis PH10605A) were cultured and passaged in fibroblast growth medium (Genlatis PM116500) according to the manufacturer’s protocol. NHDF cells (1 × 10^3 per well) were plated in a 384-well plate in cell culture medium. The cells were incubated with each compound of interest at 10 μM concentration for 72 h at 37°C and 5% CO2. Following treatment, CellTiter-Glo (Promega) reagent was used to assay ATP-dependent luminescence and thus provide a measure of cell viability. […] For cytotoxicity dose-response curves (Fig. 4C and Fig. 5C), compounds were titrated from 80 μM to 0.5 μM in duplicates.
smiles,measurement,setting,value
CC1Cc2ccccc2N1C(=O)CCn1c(=O)sc2ccccc21 (stereo not drawn) [compound 3163780],Yeast Inhibition: % Inhibition,[1],-1.3%
same,Cytotoxicity: Relative Cell Viability (% of Negative Control),[2],59.5 % of Negative Control
S=C1SCN(Cc2ccccn2)CN1Cc1ccco1 [compound 3242906],Yeast Inhibition: % Inhibition,[1],100.6%
same,Cytotoxicity: Relative Cell Viability (% of Negative Control),[2],103.5 % of Negative Control
O=C1CC(c2ccccc2)[Se]C(c2ccccc2)C1 (stereo not drawn) [compound 3287596],Yeast Inhibition: % Inhibition,[1],100.2%
same,Cytotoxicity: Relative Cell Viability (% of Negative Control),[2],45.9 % of Negative Control
COC(=O)C1=C(N)OC2=C(C(=O)CCC2)C1c1ccc(OC)c(OC)c1 (stereo not drawn) [compound 3355288],Yeast Inhibition: % Inhibition,[1],9.4%
same,Cytotoxicity: Relative Cell Viability (% of Negative Control),[2],104.5 % of Negative Control
S=C(NCc1ccco1)SCc1cn2ccccc2n1 [compound 3377203],Yeast Inhibition: % Inhibition,[1],66.6%
same,Cytotoxicity: Relative Cell Viability (% of Negative Control),[2],86.3 % of Negative Control
CCCOC1(NS(=O)(=O)c2ccccc2)C(Cl)=C(Cl)C(=O)c2ccccc21 (stereo not drawn) [compound 3397555],Yeast Inhibition: % Inhibition,[1],101.3%
same,Cytotoxicity: Relative Cell Viability (% of Negative Control),[2],17.7 % of Negative Control
Cc1ccc2nc(Nc3ccncc3)nc(-c3ccccc3)c2c1 [compound 3516311],Yeast Inhibition: % Inhibition,[1],20.1%
same,Cytotoxicity: Relative Cell Viability (% of Negative Control),[2],72.7 % of Negative Control
Nc1cc(Cl)c([N+](=O)[O-])cc1OCc1ccccc1 [compound 3521356],Yeast Inhibition: % Inhibition,[1],52.3%
same,Cytotoxicity: Relative Cell Viability (% of Negative Control),[2],102.1 % of Negative Control
O=C(Nc1ccc2sccc2c1)c1ccc([N+](=O)[O-])s1 [compound 3629287],Yeast Inhibition: % Inhibition,[1],97.9%
same,Cytotoxicity: Relative Cell Viability (% of Negative Control),[2],19.4 % of Negative Control
CC(C)(C)c1c[se]c(=S)s1 [compound 3797566],Yeast Inhibition: % Inhibition,[1],91.9%
same,Cytotoxicity: Relative Cell Viability (% of Negative Control),[2],98.5 % of Negative Control
CCOC(=O)N1CCN(C(c2ccccn2)c2c(-c3ccccc3)n(O)c3ccccc23)CC1 (stereo not drawn) [compound 4081132],Yeast Inhibition: % Inhibition,[1],101.5%
same,Cytotoxicity: Relative Cell Viability (% of Negative Control),[2],84.9 % of Negative Control
CC(C)C(=O)Nc1nnc(SCc2cccc(F)c2)s1 [compound 4086498],Yeast Inhibition: % Inhibition,[1],20.2%
same,Cytotoxicity: Relative Cell Viability (% of Negative Control),[2],106.8 % of Negative Control
CCCCCCCNS(=O)(=O)c1ccc(OCC)cc1 [compound 4102712],Yeast Inhibition: % Inhibition,[1],46.8%
same,Cytotoxicity: Relative Cell Viability (% of Negative Control),[2],43.9 % of Negative Control
O=C(N=C1C(Cl)=C(Cl)C(=O)c2ccccc21)c1ccc(Cl)cc1 [compound 4111118],Yeast Inhibition: % Inhibition,[1],100.7%
same,Cytotoxicity: Relative Cell Viability (% of Negative Control),[2],7.1 % of Negative Control
O=C(Nc1cccc(C(F)(F)F)c1)C(Cl)C(=O)c1ccccc1 (stereo not drawn) [compound 4162926],Yeast Inhibition: % Inhibition,[1],101.5%
same,Cytotoxicity: Relative Cell Viability (% of Negative Control),[2],20.8 % of Negative Control
N#CC(C#N)=NNc1cccc(Br)c1 [compound 4199189],Yeast Inhibition: % Inhibition,[1],101.2%
same,Cytotoxicity: Relative Cell Viability (% of Negative Control),[2],31.1 % of Negative Control
c1ccc(-c2nc([P+](c3ccccc3)(c3ccccc3)c3ccccc3)c(N3CCCCCC3)o2)cc1 [compound 4345313],Yeast Inhibition: % Inhibition,[1],101.2%
same,Cytotoxicity: Relative Cell Viability (% of Negative Control),[2],28.8 % of Negative Control
CCSc1oc(-c2ccco2)nc1[P+](c1ccccc1)(c1ccccc1)c1ccccc1 [compound 4360162],Yeast Inhibition: % Inhibition,[1],72.3%
same,Cytotoxicity: Relative Cell Viability (% of Negative Control),[2],41.9 % of Negative Control
Cc1cc(C)c(S(=O)(=O)Nc2nc(C(F)(F)F)cs2)c(C)c1 [compound 4413055],Yeast Inhibition: % Inhibition,[1],9.5%
same,Cytotoxicity: Relative Cell Viability (% of Negative Control),[2],49.5 % of Negative Control
Nc1c(-c2ccccc2)sc2nc(-c3ccccc3)cc[n+]12 [compound 4458495],Yeast Inhibition: % Inhibition,[1],87.8%
same,Cytotoxicity: Relative Cell Viability (% of Negative Control),[2],52.5 % of Negative Control
CCC(OCC(O)CN1CCC(Cc2ccccc2)CC1)c1ccccc1 (stereo not drawn) [compound 4471873],Yeast Inhibition: % Inhibition,[1],82.2%
same,Cytotoxicity: Relative Cell Viability (% of Negative Control),[2],78.8 % of Negative Control
COC(=O)c1c(NC(=O)c2ccc(C(C)(C)C)cc2)sc2c1CCN(C(C)C)C2 [compound 4684724],Yeast Inhibition: % Inhibition,[1],50.4%
same,Cytotoxicity: Relative Cell Viability (% of Negative Control),[2],34.9 % of Negative Control
CN(Cc1ccccc1)C(=O)COc1ccc(Br)cc1 [compound 4690650],Yeast Inhibition: % Inhibition,[1],25.9%
same,Cytotoxicity: Relative Cell Viability (% of Negative Control),[2],66.8 % of Negative Control
Clc1ccc2nc(Nc3ccncc3)nc(-c3ccccc3)c2c1 [compound 4714160],Yeast Inhibition: % Inhibition,[1],14.9%
same,Cytotoxicity: Relative Cell Viability (% of Negative Control),[2],90.5 % of Negative Control
Cc1ccc2cc(CCC#N)c(Cl)nc2c1 [compound 4736829],Yeast Inhibition: % Inhibition,[1],62.6%
same,Cytotoxicity: Relative Cell Viability (% of Negative Control),[2],96.3 % of Negative Control
O=[N+]([O-])CC(SCCO)c1ccc(O)cc1 (stereo not drawn) [compound 4737365],Yeast Inhibition: % Inhibition,[1],99.2%
same,Cytotoxicity: Relative Cell Viability (% of Negative Control),[2],25.2 % of Negative Control
C=C(C)Cn1c(C2CC(=O)N(c3ccccc3F)C2)nc2ccccc21 (stereo not drawn) [compound 4754109],Yeast Inhibition: % Inhibition,[1],6.6%
same,Cytotoxicity: Relative Cell Viability (% of Negative Control),[2],95.9 % of Negative Control
COc1cc(-c2c(C#N)c(N)nc3c2c(C)nn3-c2ccc(C)cc2)cc(OC)c1OC [compound 4893324],Yeast Inhibition: % Inhibition,[1],-3.0%
same,Cytotoxicity: Relative Cell Viability (% of Negative Control),[2],84.7 % of Negative Control
COc1cccc2cc(-c3csc(NN=C4CCN(C)CC4)n3)c(=O)oc12 [compound 4913014],Yeast Inhibition: % Inhibition,[1],99.6%
same,Cytotoxicity: Relative Cell Viability (% of Negative Control),[2],68.7 % of Negative Control
COc1ccc(/C=C/c2nc3ccccc3[nH]2)cc1 [compound 5769808],Yeast Inhibition: % Inhibition,[1],70.2%
same,Cytotoxicity: Relative Cell Viability (% of Negative Control),[2],14.4 % of Negative Control
C/C=C/c1ccc(OCCn2cnc3ccccc32)c(OC)c1 [compound 5769972],Yeast Inhibition: % Inhibition,[1],79.1%
same,Cytotoxicity: Relative Cell Viability (% of Negative Control),[2],97.3 % of Negative Control
CN(C)/C=C/c1cc(=S)c2ccccc2s1 [compound 5991625],Yeast Inhibition: % Inhibition,[1],65.3%
same,Cytotoxicity: Relative Cell Viability (% of Negative Control),[2],72.5 % of Negative Control
NC(=O)c1ccsc1NC(=O)/C=C/c1ccccc1 [compound 6104220],Yeast Inhibition: % Inhibition,[1],51.7%
same,Cytotoxicity: Relative Cell Viability (% of Negative Control),[2],50.8 % of Negative Control
C(=C\c1cccs1)/c1nnc(-c2cccs2)o1 [compound 6263817],Yeast Inhibition: % Inhibition,[1],49.0%
same,Cytotoxicity: Relative Cell Viability (% of Negative Control),[2],84.3 % of Negative Control
COc1ccc(Nc2nc3ccc(OC)cc3s2)cc1 [compound 7086348],Yeast Inhibition: % Inhibition,[1],31.0%
same,Cytotoxicity: Relative Cell Viability (% of Negative Control),[2],91.3 % of Negative Control
O=S(=O)(NCc1csc(-c2ccccc2)n1)c1cc(Cl)ccc1Cl [compound 7119035],Yeast Inhibition: % Inhibition,[1],38.8%
same,Cytotoxicity: Relative Cell Viability (% of Negative Control),[2],89.2 % of Negative Control
CC(=O)c1cccc(NC(=O)c2cc(Cl)sc2Cl)c1 [compound 7120750],Yeast Inhibition: % Inhibition,[1],72.7%
same,Cytotoxicity: Relative Cell Viability (% of Negative Control),[2],79.8 % of Negative Control
NC(=O)c1ccsc1NC(=O)c1ccc(Cl)cc1Cl [compound 7167022],Yeast Inhibition: % Inhibition,[1],52.4%
same,Cytotoxicity: Relative Cell Viability (% of Negative Control),[2],83.5 % of Negative Control
O=C(COc1coc(CN2CCc3ccccc32)cc1=O)OCc1ccccc1 [compound 7178481],Yeast Inhibition: % Inhibition,[1],15.8%
same,Cytotoxicity: Relative Cell Viability (% of Negative Control),[2],88.3 % of Negative Control
O=C(/C=C/c1cccc(F)c1)c1ccc[nH]1 [compound 7185492],Yeast Inhibition: % Inhibition,[1],99.0%
same,Cytotoxicity: Relative Cell Viability (% of Negative Control),[2],40.0 % of Negative Control
O=C(/C=C/c1cccc(F)c1)c1cccs1 [compound 7185494],Yeast Inhibition: % Inhibition,[1],101.7%
same,Cytotoxicity: Relative Cell Viability (% of Negative Control),[2],45.7 % of Negative Control
O=C(Nc1nc2c(Br)cccc2s1)C1CC1 [compound 7202929],Yeast Inhibition: % Inhibition,[1],16.5%
same,Cytotoxicity: Relative Cell Viability (% of Negative Control),[2],66.1 % of Negative Control
CCCC(=O)N1CCN(c2nc3c(C)c(Cl)ccc3s2)CC1 [compound 7294823],Yeast Inhibition: % Inhibition,[1],31.5%
same,Cytotoxicity: Relative Cell Viability (% of Negative Control),[2],104.9 % of Negative Control
CCCc1cc(C(=O)OC)c(N2C(=O)C=CC2=O)s1 [compound 7456205],Yeast Inhibition: % Inhibition,[1],101.6%
same,Cytotoxicity: Relative Cell Viability (% of Negative Control),[2],4.1 % of Negative Control
c1ccc(Cn2nnc3c(Sc4ncco4)ncnc32)cc1 [compound 7471335],Yeast Inhibition: % Inhibition,[1],101.6%
same,Cytotoxicity: Relative Cell Viability (% of Negative Control),[2],4.1 % of Negative Control
Cc1nc(-c2ccc(F)cc2)sc1CCNC(=O)c1ccc(Br)o1 [compound 7503016],Yeast Inhibition: % Inhibition,[1],20.4%
same,Cytotoxicity: Relative Cell Viability (% of Negative Control),[2],97.2 % of Negative Control
Cc1ccc(NS(=O)(=O)N2CCCCCC2)cc1Cl [compound 8720355],Yeast Inhibition: % Inhibition,[1],45.8%
same,Cytotoxicity: Relative Cell Viability (% of Negative Control),[2],71.9 % of Negative Control
CCc1ccccc1NC(=O)c1cc(C)oc1C [compound 8839503],Yeast Inhibition: % Inhibition,[1],37.3%
same,Cytotoxicity: Relative Cell Viability (% of Negative Control),[2],103.5 % of Negative Control
